Measured values: US5300629A, “Bactericidal and/or bacteriostatic peptides isolated from hemolymph of honeybees” (Plant Genetic Systems, N.V., priority 1987, dated 1994)
≈ marks a conversion by molar mass, not a printed value. Where a SMILES comes first, the peptide text is derived from it.

Columns and labels:
E. coli NCTC 9001 [1] = format: cell-based; conditions: NCTC 9001, 72 h
Protocol: Whole lymph or purified components, resuspended in PBS to a final volume equal to the starting material (heated lymph), was applied in 3 mm wells on agar plates seeded with the test organisms. Antibacterial activity was determined by measuring the growth-inhibition zones (in mm).
Test conditions: agar inhibition zone obtained with 10 namomole apidaecin, resuspended in 20 μl H2 O/well.

E. coli NCTC 9001 [2] = test: Bactericidal activity, method not stated; format: cell-based; conditions: lyophilized apidaecins resuspended in PBS
[3] = tested on: Escherichia coli NCTC 9001; test: Minimal inhibitory concentration in liquid culture; format: cell-based; conditions: 200 μl rich medium, 10^4 log-phase bacteria
[4] = tested on: Bacillus megaterium QB 1551; test: Minimal inhibitory concentration in liquid culture; format: cell-based; conditions: 200 μl rich medium, 10^4 log-phase bacteria, + = no inhibition at maximal value
[5] = tested on: Erwinia carotovora var carotovora NCPPB 312; test: Minimal inhibitory concentration in liquid culture; format: cell-based; conditions: 200 μl rich medium, 10^4 log-phase bacteria
[6] = tested on: Corynebacterium insidiosum NCPPB 1109; test: Minimal inhibitory concentration in liquid culture; format: cell-based; conditions: 200 μl rich medium, 10^4 log-phase bacteria
Protocol: (§1) In addition the exact concentration was determined precisely by amino-acid analysis and an equal sample of natural Bee 6b was prepared, allowing to compare the bactericidal activity of both natural and synthetic apidaecins by means of growth inhibition assays in liquid cultures (see mat & Meth.). The minimal inhibitory concentrations (μg/ml) were determined in liquid culture : 200 μl of a rich medium (trypticase soy broth or nutrient broth) was inoculated with 10^4 log-phase bacteria. Peptide concentrations ranged between 0 and 200 μg/ml. The values express μg/ml; when no inhibition was noticed the maximal values are given (+200 μg/ml or +50 μg/ml). All peptides were chemically synthesized, except for bee 6b which is purified from bee lymph.

Shigella flexneri CP 87 = test: Minimal inhibitory concentration in liquid culture; format: cell-based; conditions: 200 μl rich medium, 10^4 log-phase bacteria
Protocol: as §1

[7] = tested on: Xanthomonas campestris pv. vesicatoria LMG 905; test: Minimal inhibitory concentration in liquid culture; format: cell-based; conditions: 200 μl rich medium, 10^4 log-phase bacteria, + = no inhibition at maximal value
Protocol: as §1

[8] = tested on: Corynebacterium michiganense pv. michiganense NCPPB 1573; test: Minimal inhibitory concentration in liquid culture; format: cell-based; conditions: 200 μl rich medium, 10^4 log-phase bacteria, + = no inhibition at maximal value
Protocol: as §1

[9] = tested on: Pseudomonas solanacearum ATCC 11696; format: cell-based; conditions: 200 μl rich medium, 10^4 log-phase bacteria
[10] = tested on: Pseudomonas syringae pv. tabaci NCPPB 1237; test: Minimal inhibitory concentration in liquid culture; format: cell-based; conditions: 200 μl rich medium, 10^4 log-phase bacteria
[11] = tested on: Pseudomonas syringae pv. tomato NCPPB 1106; test: Minimal inhibitory concentration in liquid culture; format: cell-based; conditions: 200 μl rich medium, 10^4 log-phase bacteria
[12] = tested on: Erwinia carotovora var atroseptica LMG 2385; test: Minimal inhibitory concentration in liquid culture; format: cell-based; conditions: 200 μl rich medium, 10^4 log-phase bacteria
Salmonella Newport CD 94 = test: Minimal inhibitory concentration in liquid culture; format: cell-based; conditions: 200 μl rich medium, 10^4 log-phase bacteria
[13] = tested on: Salmonella typhimurium ATCC 23565; test: Minimal inhibitory concentration in liquid culture; format: cell-based; conditions: 200 μl rich medium, 10^4 log-phase bacteria
[14] = tested on: Rhizobium meliloti ZB 314; test: Minimal inhibitory concentration in liquid culture; format: cell-based; conditions: 200 μl rich medium, 10^4 log-phase bacteria
[15] = tested on: Pseudomonas syringae pv. maculicola NCPPB 1776; test: Minimal inhibitory concentration in liquid culture; format: cell-based; conditions: 200 μl rich medium, 10^4 log-phase bacteria
[16] = tested on: Citrobacter freundii ATCC 8090; test: Minimal inhibitory concentration in liquid culture; format: cell-based; conditions: 200 μl rich medium, 10^4 log-phase bacteria
[17] = tested on: Agrobactierium tumefaciens DSM 3129; test: Minimal inhibitory concentration in liquid culture; format: cell-based; conditions: 200 μl rich medium, 10^4 log-phase bacteria
[18] = tested on: Xanthomonas campestris pv. campestris A 902; test: Minimal inhibitory concentration in liquid culture; format: cell-based; conditions: 200 μl rich medium, 10^4 log-phase bacteria, + = no inhibition at maximal value
[19] = tested on: Erwinia salicis NCPPB 2530; test: Minimal inhibitory concentration in liquid culture; format: cell-based; conditions: 200 μl rich medium, 10^4 log-phase bacteria

CC[C@H](C)[C@H](NC(=O)[C@H](Cc1ccc(O)cc1)NC(=O)[C@@H](NC(=O)[C@@H]1CCCN1C(=O)[C@H](CCCNC(=N)N)NC(=O)[C@@H](N)CC(N)=O)C(C)C)C(=O)N1CCC[C@H]1C(=O)N[C@@H](CCC(N)=O)C(=O)N1CCC[C@H]1C(=O)N[C@@H](CCCNC(=N)N)C(=O)N1CCC[C@H]1C(=O)N1CCC[C@H]1C(=O)N[C@@H](Cc1c[nH]cn1)C(=O)N1CCC[C@H]1C(=O)N[C@@H](CCCNC(=N)N)C(=O)N[C@@H](CC(C)C)C(=O)O [Apid Ib2, N-R-P-V-Y-I-P-Q-P-R-P-P-H-P-R-L] (H-NRPVYIPQPRPPHPRL-OH)
agar inhibition zone (E. coli NCTC 9001 [1]): 16 mm

CC[C@H](C)[C@H](NC(=O)[C@H](Cc1ccc(O)cc1)NC(=O)[C@@H](NC(=O)[C@@H]1CCCN1C(=O)[C@H](CCCNC(=N)N)NC(=O)[C@H](CC(N)=O)NC(=O)[C@H](CC(N)=O)NC(=O)CN)C(C)C)C(=O)N1CCC[C@H]1C(=O)N[C@@H](CCC(N)=O)C(=O)N1CCC[C@H]1C(=O)N[C@@H](CCCNC(=N)N)C(=O)N1CCC[C@H]1C(=O)N1CCC[C@H]1C(=O)N[C@@H](Cc1c[nH]cn1)C(=O)N1CCC[C@H]1C(=O)N[C@@H](CCCNC(=N)N)C(=O)N[C@@H](CC(C)C)C(=O)O [Apid Ib] (H-GNNRPVYIPQPRPPHPRL-OH)
bactericidal activity (E. coli NCTC 9001 [2]): possessed a bactericidal activity
agar inhibition zone (E. coli NCTC 9001 [1]): 18 mm

CC[C@H](C)[C@H](NC(=O)[C@H](CCCNC(=N)N)NC(=O)[C@@H]1CCCN1C(=O)[C@H](Cc1c[nH]cn1)NC(=O)[C@@H]1CCCN1C(=O)[C@@H]1CCCN1C(=O)[C@H](CCCNC(=N)N)NC(=O)[C@@H]1CCCN1C(=O)[C@H](CCC(N)=O)NC(=O)[C@@H]1CCCN1C(=O)[C@@H](NC(=O)[C@H](Cc1ccc(O)cc1)NC(=O)[C@@H](NC(=O)[C@@H]1CCCN1C(=O)[C@H](CCCNC(=N)N)NC(=O)[C@H](CC(N)=O)NC(=O)[C@H](CC(N)=O)NC(=O)[C@H](CC(N)=O)NC(=O)CN)C(C)C)[C@@H](C)CC)C(=O)O [Apid NT+1] (H-GNNNRPVYIPQPRPPHPRI-OH)
minimal inhibitory concentration [3]: 0.2 µg/mL (≈ 0.09 µM)
minimal inhibitory concentration [4]: 100 µg/mL
minimal inhibitory concentration [5]: 2.5 µg/mL (≈ 1.12 µM)
bactericidal activity (E. coli NCTC 9001 [2]): possessed a bactericidal activity
minimal inhibitory concentration [6]: 100 µg/mL (≈ 45 µM)
minimal inhibitory concentration (Shigella flexneri CP 87): 0.1 µg/mL (≈ 0.045 µM)
minimal inhibitory concentration [7]: > 50 µg/mL
minimal inhibitory concentration [8]: > 50 µg/mL
minimal inhibitory concentration [9]: 25 µg/mL (≈ 11.2 µM)
minimal inhibitory concentration [10]: 2.5 µg/mL (≈ 1.12 µM)
minimal inhibitory concentration [11]: 1 µg/mL (≈ 0.45 µM)
minimal inhibitory concentration [12]: 1 µg/mL (≈ 0.45 µM)
minimal inhibitory concentration (Salmonella Newport CD 94): 1 µg/mL (≈ 0.45 µM)
minimal inhibitory concentration [13]: 0.1 µg/mL (≈ 0.045 µM)
minimal inhibitory concentration [14]: 0.1 µg/mL (≈ 0.045 µM)
minimal inhibitory concentration [15]: 2.5 µg/mL (≈ 1.12 µM)
minimal inhibitory concentration [16]: 0.2 µg/mL (≈ 0.09 µM)
minimal inhibitory concentration [17]: 0.2 µg/mL (≈ 0.09 µM)
minimal inhibitory concentration [18]: > 50 µg/mL
minimal inhibitory concentration [19]: 0.02 µg/mL (≈ 0.009 µM)

CC[C@H](C)[C@H](NC(=O)[C@H](Cc1ccc(O)cc1)NC(=O)[C@@H](NC(=O)[C@@H]1CCCN1C(=O)[C@H](CCCNC(=N)N)NC(=O)[C@H](CC(N)=O)NC(=O)[C@H](CC(N)=O)NC(=O)CN)C(C)C)C(=O)N1CCC[C@H]1C(=O)N[C@@H](CCC(N)=O)C(=O)N1CCC[C@H]1C(=O)N[C@@H](CCCNC(=N)N)C(=O)N1CCC[C@H]1C(=O)N1CCC[C@H]1C(=O)N[C@@H](Cc1cnc[nH]1)C(=O)N1CCC[C@H]1C(=O)N[C@@H](CCCNC(=N)N)C(=O)N[C@@H](CC(C)C)C(=O)O [bee 6b] (H-GNNRPVYIPQPRPPHPRL-OH)
cell division and callus formation (Tobacco leaf protoplasts; after immobilization in low melting agarose): normal cell division and callus formation occured
visible effects during incubation (Tobacco leaf protoplasts; tobacco leaf protoplasts 10^6 cells/ml, 2 days, 10 ng/ml up to 50 μg/ml): no visible effects were observed

CC[C@H](C)[C@H](NC(=O)[C@@H](N)Cc1ccc(O)cc1)C(=O)N1CCC[C@H]1C(=O)N[C@@H](CCC(N)=O)C(=O)N1CCC[C@H]1C(=O)N[C@@H](CCCNC(=N)N)C(=O)N1CCC[C@H]1C(=O)N1CCC[C@H]1C(=O)N[C@@H](Cc1c[nH]cn1)C(=O)N1CCC[C@H]1C(=O)N[C@@H](CCCNC(=N)N)C(=O)N[C@@H](CC(C)C)C(=O)O [Apid IB6, Y-I-P-Q-P-R-P-P-H-P-R-L] (H-YIPQPRPPHPRL-OH)
agar inhibition zone (E. coli NCTC 9001 [1]): 9 mm

CC[C@H](C)[C@H](NC(=O)[C@H](Cc1ccc(O)cc1)NC(=O)[C@@H](NC(=O)[C@@H]1CCCN1C(=O)[C@H](CCCNC(=N)N)NC(=O)[C@H](CC(N)=O)NC(=O)[C@H](CC(N)=O)NC(=O)CN)C(C)C)C(=O)N[C@@H](CCC(N)=O)C(=O)N1CCC[C@H]1C(=O)N[C@@H](CCCNC(=N)N)C(=O)N1CCC[C@H]1C(=O)N1CCC[C@H]1C(=O)N[C@@H](Cc1c[nH]cn1)C(=O)N1CCC[C@H]1C(=O)N[C@@H](CCCNC(=N)N)C(=O)N[C@@H](CC(C)C)C(=O)O [Apid PT-1] (H-GNNRPVYIQPRPPHPRL-OH)
minimal inhibitory concentration [3]: 5 µg/mL (≈ 2.49 µM)
minimal inhibitory concentration [4]: 150 µg/mL
bactericidal activity (E. coli NCTC 9001 [2]): possessed a bactericidal activity
minimal inhibitory concentration (Shigella flexneri CP 87): 0.5 µg/mL (≈ 0.249 µM)
minimal inhibitory concentration [11]: 0.1 µg/mL (≈ 0.0497 µM)
minimal inhibitory concentration (Salmonella Newport CD 94): 5 µg/mL (≈ 2.49 µM)
minimal inhibitory concentration [13]: 5 µg/mL (≈ 2.49 µM)
minimal inhibitory concentration [14]: 0.02 µg/mL (≈ 0.00994 µM)
minimal inhibitory concentration [16]: 5 µg/mL (≈ 2.49 µM)
minimal inhibitory concentration [17]: 0.5 µg/mL (≈ 0.249 µM)
minimal inhibitory concentration [19]: 0.05 µg/mL (≈ 0.0249 µM)

CC[C@H](C)[C@H](NC(=O)[C@H](Cc1ccc(O)cc1)NC(=O)[C@@H](NC(=O)[C@@H]1CCCN1)C(C)C)C(=O)N1CCC[C@H]1C(=O)N[C@@H](CCC(N)=O)C(=O)N1CCC[C@H]1C(=O)N[C@@H](CCCNC(=N)N)C(=O)N1CCC[C@H]1C(=O)N1CCC[C@H]1C(=O)N[C@@H](Cc1c[nH]cn1)C(=O)N1CCC[C@H]1C(=O)N[C@@H](CCCNC(=N)N)C(=O)N[C@@H](CC(C)C)C(=O)O [Apid Ib4, P-V-Y-I-P-Q-P-R-P-P-H-P-R-L] (H-PVYIPQPRPPHPRL-OH)
agar inhibition zone (E. coli NCTC 9001 [1]): 14 mm
